Values of other authors, collected in patent US20260125371A1, “METHOD FOR INHIBITING CLOSTRIDIOIDES DIFFICILE SPORE GERMINATION” (UNIVERSITY OF NOTRE DAME DU LAC, priority 2022, published 2026).
In brackets after ≈: the same amount, converted by molar mass.

Columns and labels:
Conditions in all cases: cited from earlier work
[1] = system: S. epidermidis ATCC 35547
S. pyogenes ATCC 49399 = system: S. pyogenes ATCC 49399
MRSA = system: MRSA
S. oralis ATCC 9811 = system: S. oralis ATCC 9811

Row | Compound | MIC [1] [µg/mL] | MIC (S. pyogenes ATCC 49399) [µg/mL] | efficacy in mouse models of MRSA infection (MRSA) | MIC (S. oralis ATCC 9811) [µg/mL]
1 | FC(F)(F)c1ccc(Oc2ccc(-c3noc(-c4ccc5[nH]ccc5c4)n3)cc2)cc1 [Compound 1] | 2 (≈ 4.75 µM) | 64 (≈ 152 µM) | efficacious | 128 (≈ 304 µM)
2 | Oc1ccc(-c2nc(-c3ccc(OC4CCCC4)cc3)no2)cc1 [Compound 2] | 2 (≈ 6.2 µM) | >128 | – | >128
